Results: the supplement of paper PMC13380429
± gives the standard deviation of the averaged measurements.

Assays:
Details in all cases: 72 h
[1] = test system: HepG2; experiment: relative viability EC50 (midpoint between 100% and the lowest measured viability); higher = less toxic
[2] = test system: Calu-3; experiment: as above
[3] = test system: U2OS; experiment: as above
[4] = test system: Vero E6; experiment: as above
[5] = test system: Caco-2; experiment: as above
[6] = test system: HepG2; experiment: drug sensitivity score (DSS) for viability; higher = more toxic; extreme values may be limits of the assay
[7] = test system: Calu-3; experiment: as above
[8] = test system: U2OS; experiment: as above
[9] = test system: Vero E6; experiment: as above
[10] = test system: Caco-2; experiment: as above
[11] = test system: HepG2; experiment: cell viability relative to DMSO; higher = less toxic
[12] = test system: Calu-3; experiment: as above
[13] = test system: U2OS; experiment: as above
[14] = test system: Vero E6; experiment: as above
[15] = test system: Caco-2; experiment: as above

| Compound | relative viability EC50 [1] [µM] | relative viability EC50 [2] [µM] | relative viability EC50 [3] [µM] | relative viability EC50 [4] [µM] | relative viability EC50 [5] [µM] | drug sensitivity score [6] | drug sensitivity score [7] | drug sensitivity score [8] | drug sensitivity score [9] | drug sensitivity score [10] | cell viability ([11]; 1 nM) [%] | cell viability ([11]; 10 nM) [%] | cell viability ([11]; 100 nM) [%] | cell viability ([11]; 1000 nM) [%] | cell viability ([11]; 10000 nM) [%] | cell viability ([12]; 1 nM) [%] | cell viability ([12]; 10 nM) [%] | cell viability ([12]; 100 nM) [%] | cell viability ([12]; 1000 nM) [%] | cell viability ([12]; 10000 nM) [%] | cell viability ([13]; 1 nM) [%] | cell viability ([13]; 10 nM) [%] | cell viability ([13]; 100 nM) [%] | cell viability ([13]; 1000 nM) [%] | cell viability ([13]; 10000 nM) [%] | cell viability ([14]; 1 nM) [%] | cell viability ([14]; 10 nM) [%] | cell viability ([14]; 100 nM) [%] | cell viability ([14]; 1000 nM) [%] | cell viability ([14]; 10000 nM) [%] | cell viability ([15]; 1 nM) [%] | cell viability ([15]; 10 nM) [%] | cell viability ([15]; 100 nM) [%] | cell viability ([15]; 1000 nM) [%] | cell viability ([15]; 10000 nM) [%] |
| --- | --- | --- | --- | --- | --- | --- | --- | --- | --- | --- | --- | --- | --- | --- | --- | --- | --- | --- | --- | --- | --- | --- | --- | --- | --- | --- | --- | --- | --- | --- | --- | --- | --- | --- | --- |
| O=C1c2ccccc2C(=O)C1c1ccc(Br)cc1 [bromindione] | > 10 | > 10 | > 10 | > 10 | > 10 | 0 | 0 | 0 | 0 | 0 | 103 | 103 | 107 | 108 | 99.5 | 107 | 93.8 | 103 | 95.6 | 106 | 104 | 99.7 | 102 | 96.5 | 102 | 102 | 103 | 103 | 104 | 99.4 | 105 | 70.7 | 95.6 | 80.8 | 96.3 |
| CCN(CC)CCNC(=O)c1cc(Br)c(N)cc1OC [bromopride] | > 10 | > 10 | > 10 | > 10 | > 10 | 0 | 0 | 0 | 0 | 0 | 94.6 | 102 | 99 | 105 | 101 | 102 | 99 | 95.8 | 104 | 111 | 101 | 99.1 | 105 | 99.4 | 101 | 95.9 | 100 | 92.9 | 99.8 | 104 | 89.7 | 96.1 | 97.4 | 94.6 | 102 |
| CC[C@H](C)[C@@H]1NC(=O)[C@H](Cc2ccc(OC)cc2)NC(=O)CCCSC[C@@H](C(=O)N2CCC[C@H]2C(=O)N[C@@H](CC(C)C)C(=O)NCC(N)=O)NC(=O)[C@H](CC(N)=O)NC(=O)[C@H](CCC(N)=O)NC1=O [carbetocin] | > 10 | > 10 | > 10 | > 10 | > 10 | 0 | 0.6 | 0 | 0 | 0.3 | 103 | 103 | 91.3 | 99.7 | 93.3 | 103 | 104 | 102 | 106 | 75.7 | 94.9 | 91.3 | 98.4 | 95.2 | 100 | 104 | 104 | 99.3 | 101 | 95.8 | 99.7 | 98.6 | 97.3 | 90.5 | 87.4 |
| C[N+](C)(C)CC(O)CC(=O)[O-] (stereo not given) [carnitine-(D/L)] | > 10 | > 10 | > 10 | > 10 | > 10 | 2.2 | 0 | 0 | 0 | 0.7 | 98.1 | 82.5 | 92.1 | 86.3 | 80.9 | 96.9 | 102 | 109 | 99.9 | 94.3 | 94.1 | 94.4 | 87.2 | 80.6 | 95.9 | 100 | 101 | 91 | 106 | 104 | 105 | 77.6 | 100 | 81.8 | 89.7 |
| O=C(O)COCCN1CCN(C(c2ccccc2)c2ccc(Cl)cc2)CC1 (stereo not given) [cetirizine] | > 10 | > 10 | > 10 | > 10 | > 10 | 0 | 0 | 0 | 0 | 0 | 100 ± 1.4 | 100 ± 1.1 | 101 ± 5.7 | 103 ± 3.5 | 102 ± 4.1 | 94.7 ± 5.4 | 105 ± 1.1 | 100.25 ± 0.071 | 95.8 ± 8.7 | 102 ± 2.5 | 95.5 ± 3.3 | 98.05 ± 0.071 | 96.2 ± 0.14 | 93.8 ± 4.5 | 102 ± 1.4 | 93.7 ± 5.7 | 97.3 ± 1.6 | 88.5 ± 4.5 | 95.3 ± 2.4 | 100 ± 1.8 | 91 ± 0.14 | 81.8 ± 7.7 | 97.8 ± 6.4 | 88 ± 12 | 107 ± 5.2 |
| C[C@@H]1C[C@H]2[C@@H]3C[C@H](F)C4=CC(=O)C=C[C@]4(C)[C@@]3(Cl)[C@@H](O)C[C@]2(C)[C@H]1C(=O)COC(=O)C(C)(C)C [clocortolone-pivalate] | > 10 | > 10 | > 10 | > 10 | > 10 | 0 | 0 | 0 | 0 | 0 | 98.8 | 93.6 | 99.1 | 103 | 108 | 92.9 | 88.2 | 102 | 96.2 | 97.3 | 95.7 | 93 | 90.1 | 90.7 | 93.4 | 101 | 90.6 | 99.6 | 95.4 | 110 | 90.6 | 99.2 | 91 | 100 | 112 |
| CN(C)[C@@H](CCOc1cccc2ccccc12)c1ccccc1 [dapoxetine] | > 10 | > 10 | > 10 | > 10 | > 10 | 0 | 1.3 | 0 | 0.1 | 0 | 94.1 | 104 | 97.1 | 95.7 | 89 | 103 | 104 | 105 | 91.7 | 81.3 | 103 | 103 | 103 | 98.2 | 89.3 | 97.5 | 101 | 98.7 | 98.8 | 88.6 | 98.5 | 96 | 101 | 102 | 89.6 |
